Key:
[1] = system: NMDAR; assay: NMDA-induced whole-cell currents in cultured hippocampal neurons (voltage clamp); assay type: cell-based, rat; details: 10 μM NMDA
[2] = target: α1Q241L mutated GABAARs (UniProt P18507+P47870+P62813, Q268L); assay: GABA current in N2a cells transfected with α1Q241L, β2 and γ2 subunits; assay type: cell-based; details: 10 μM GABA; AlloP 50 nM, MQ-221 10 μM
Sequence of α1Q241L mutated GABAARs (P62813 28-455 Q268L): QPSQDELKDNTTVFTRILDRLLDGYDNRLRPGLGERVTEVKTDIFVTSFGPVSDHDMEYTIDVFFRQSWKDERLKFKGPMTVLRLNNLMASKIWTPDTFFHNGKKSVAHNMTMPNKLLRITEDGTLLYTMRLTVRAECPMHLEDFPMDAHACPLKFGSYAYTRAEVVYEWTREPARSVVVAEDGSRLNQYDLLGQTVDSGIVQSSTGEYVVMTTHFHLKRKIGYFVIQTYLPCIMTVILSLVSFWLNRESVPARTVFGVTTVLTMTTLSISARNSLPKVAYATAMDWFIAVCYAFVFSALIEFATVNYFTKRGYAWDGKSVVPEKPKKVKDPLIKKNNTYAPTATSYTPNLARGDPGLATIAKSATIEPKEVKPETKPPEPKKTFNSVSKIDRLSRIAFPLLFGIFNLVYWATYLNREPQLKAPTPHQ
Sequence of α1Q241L mutated GABAARs (P47870 25-512 limits assumed): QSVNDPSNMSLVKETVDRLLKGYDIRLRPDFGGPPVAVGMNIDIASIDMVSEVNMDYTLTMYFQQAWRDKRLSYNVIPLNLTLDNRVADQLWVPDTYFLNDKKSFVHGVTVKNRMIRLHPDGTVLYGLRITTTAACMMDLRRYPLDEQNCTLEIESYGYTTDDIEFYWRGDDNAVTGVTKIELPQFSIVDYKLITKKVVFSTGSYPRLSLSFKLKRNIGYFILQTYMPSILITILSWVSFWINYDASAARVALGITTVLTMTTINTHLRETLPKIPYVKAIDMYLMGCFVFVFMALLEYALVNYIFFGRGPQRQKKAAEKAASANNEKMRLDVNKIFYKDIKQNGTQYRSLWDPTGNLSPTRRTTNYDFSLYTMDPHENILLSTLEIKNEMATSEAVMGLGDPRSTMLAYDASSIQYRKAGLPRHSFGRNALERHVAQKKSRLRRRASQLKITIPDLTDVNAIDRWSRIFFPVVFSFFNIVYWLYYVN
Sequence of α1Q241L mutated GABAARs (P18507 40-475): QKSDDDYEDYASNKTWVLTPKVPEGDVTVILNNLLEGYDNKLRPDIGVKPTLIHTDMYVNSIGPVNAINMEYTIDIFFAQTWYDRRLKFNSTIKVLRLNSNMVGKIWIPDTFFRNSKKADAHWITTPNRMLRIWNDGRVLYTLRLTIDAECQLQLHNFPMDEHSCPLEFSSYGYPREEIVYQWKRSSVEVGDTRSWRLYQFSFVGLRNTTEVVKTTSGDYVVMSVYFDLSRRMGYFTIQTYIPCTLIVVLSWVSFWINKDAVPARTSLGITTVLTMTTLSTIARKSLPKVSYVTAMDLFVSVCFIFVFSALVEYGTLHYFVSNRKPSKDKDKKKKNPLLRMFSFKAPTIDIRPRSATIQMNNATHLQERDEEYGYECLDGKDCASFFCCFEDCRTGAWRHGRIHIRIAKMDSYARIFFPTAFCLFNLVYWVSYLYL

Molecule	Action on closed NMDAR channels (pre-application in the absence of agonist) ([1]; 2.5 μM MQ-221, 300 μM 3α5βPS)	Inhibition of NMDAR function in the presence of agonist (co-application) ([1]; 300 μM 3α5βPS)	Effect of the α1 Q241L mutation on potentiation of GABA current [2]
pregnanolone sulfate [reference compound]	little effect on closed channels	strongly inhibited	
CC(=O)[C@H]1CC[C@H]2[C@@H]3CC[C@H]4C[C@H](O)CC[C@]4(C)[C@H]3CC[C@]12C [allopregnanolone, reference compound]			elimination of allopregnanolone (AlloP) potentiation

From US20220396597A1 (priority 2019, published 2022)
